ChEMBL document CHEMBL3877316, “Synthesis of pharmacologically important naphthoquinones and anticancer activity of 2-benzyllawsone through DNA topoisomerase-II inhibition” (Bioorg Med Chem, 2017)
Activity calls are given as the source filed them. The rule behind the calls is not given here.

What was measured:
[1] = tested on: Mus musculus; experiment: Acute toxicity in Swiss albino mouse assessed as serum creatinine level at 50 mg/kg, po qd administered as single dose for 7 days (reference value: 0.09 +/- 0.01 mg/dl); assay type: organism-based; details: in vivo, 168 h
[2] = tested on: Mus musculus; experiment: Acute toxicity in Swiss albino mouse assessed as serum RBC level at 50 mg/kg, po qd administered as single dose for 7 days (reference value: 9.07 +/- 1.13 million/mm3); assay type: organism-based; details: in vivo, 168 h
[3] = tested on: Mus musculus; experiment: Acute toxicity in Swiss albino mouse assessed as changes in relative weight of heart up to 1000 mg/kg, po qd administered as single dose for 7 days; assay type: organism-based; details: in vivo, 168 h
[4] = tested on: Mus musculus; experiment: Acute toxicity in Swiss albino mouse assessed as changes in relative weight of kidney up to 1000 mg/kg, po qd administered as single dose for 7 days; assay type: organism-based; details: in vivo, 168 h
[5] = tested on: Mus musculus; experiment: Acute toxicity in Swiss albino mouse assessed as serum haemoglobin level at 5 mg/kg, po qd administered as single dose for 7 days (reference value: 13.29 +/- 0.46 g/dl); assay type: organism-based; details: in vivo, 168 h
[6] = tested on: Mus musculus; experiment: Acute toxicity in Swiss albino mouse assessed as serum ALP level at 50 mg/kg, po qd administered as single dose for 7 days (reference value: 292.13 +/- 40.29 U/L); assay type: organism-based; details: in vivo, 168 h
[7] = tested on: Mus musculus; experiment: Acute toxicity in Swiss albino mouse assessed as serum RBC level at 5 mg/kg, po qd administered as single dose for 7 days (reference value: 9.07 +/- 1.13 million/mm3); assay type: organism-based; details: in vivo, 168 h
[8] = Antiproliferative activity against HEK293 cells after 48 hrs by SRB assay; assay type: cell-based; details: Homo sapiens, HEK293, 48 h
[9] = tested on: Mus musculus; experiment: Acute toxicity in Swiss albino mouse assessed as changes in absolute weight of heart up to 1000 mg/kg, po qd administered as single dose for 7 days; assay type: organism-based; details: in vivo, 168 h
[10] = tested on: Mus musculus; experiment: Acute toxicity in Swiss albino mouse assessed as changes in absolute weight of lungs up to 1000 mg/kg, po qd administered as single dose for 7 days; assay type: organism-based; details: in vivo, 168 h
[11] = tested on: Mus musculus; experiment: Acute toxicity in Swiss albino mouse assessed as changes in absolute weight of liver up to 1000 mg/kg, po qd administered as single dose for 7 days; assay type: organism-based; details: in vivo, 168 h
[12] = Antiproliferative activity against human DLD1 cells after 48 hrs by SRB assay; assay type: functional, cell-based; details: DLD-1, 48 h
[13] = tested on: Mus musculus; experiment: Acute toxicity in Swiss albino mouse assessed as effect on lymphocyte count up to 1000 mg/kg, po qd administered as single dose for 7 days; assay type: organism-based; details: in vivo, 168 h
[14] = tested on: Mus musculus; experiment: Acute toxicity in Swiss albino mouse assessed as effect on eosinophil count up to 1000 mg/kg, po qd administered as single dose for 7 days; assay type: organism-based; details: in vivo, 168 h
[15] = tested on: Mus musculus; experiment: Acute toxicity in Swiss albino mouse assessed as serum SGOT level at 300 mg/kg, po qd administered as single dose for 7 days (reference value: 34.32 +/- 3.78 U/L); assay type: organism-based; details: in vivo, 168 h
[16] = tested on: Mus musculus; experiment: Acute toxicity in Swiss albino mouse assessed as changes in relative weight of spleen up to 1000 mg/kg, po qd administered as single dose for 7 days; assay type: organism-based; details: in vivo, 168 h
[17] = tested on: Mus musculus; experiment: Acute toxicity in Swiss albino mouse assessed as serum ALP level at 1000 mg/kg, po qd administered as single dose for 7 days (reference value: 292.13 +/- 40.29 U/L); assay type: organism-based; details: in vivo, 168 h
[18] = tested on: Mus musculus; experiment: Acute toxicity in Swiss albino mouse assessed as serum WBC level at 1000 mg/kg, po qd administered as single dose for 7 days (reference value: 8.64 +/- 0.42 10^3/mm3); assay type: organism-based; details: in vivo, 168 h
[19] = tested on: Mus musculus; experiment: Acute toxicity in Swiss albino mouse assessed as serum albumin level at 5 mg/kg, po qd administered as single dose for 7 days (reference value: 2.49 +/- 0.17 g/dl); assay type: organism-based; details: in vivo, 168 h
[20] = tested on: Mus musculus; experiment: Acute toxicity in Swiss albino mouse assessed as body weight at 1000 mg/kg, po qd administered as single dose for 7 days (reference value: 27.73 +/- 0.94 g); assay type: organism-based; details: in vivo, 168 h
[21] = tested on: Mus musculus; experiment: Acute toxicity in Swiss albino mouse assessed as serum WBC level at 50 mg/kg, po qd administered as single dose for 7 days (reference value: 8.64 +/- 0.42 10^3/mm3); assay type: organism-based; details: in vivo, 168 h
[22] = tested on: FaDu; experiment: Induction of apoptosis in human FADU cells at 10 uM by propidium iodide staining based flow cytometry; assay type: functional, cell-based
[23] = tested on: Mus musculus; experiment: Acute toxicity in Swiss albino mouse assessed as serum creatinine level at 300 mg/kg, po qd administered as single dose for 7 days (reference value: 0.09 +/- 0.01 mg/dl); assay type: organism-based; details: in vivo, 168 h
[24] = tested on: Mus musculus; experiment: Acute toxicity in Swiss albino mouse assessed as changes in absolute weight of brain up to 1000 mg/kg, po qd administered as single dose for 7 days; assay type: organism-based; details: in vivo, 168 h
[25] = tested on: Mus musculus; experiment: Acute toxicity in Swiss albino mouse assessed as serum haemoglobin level at 50 mg/kg, po qd administered as single dose for 7 days (reference value: 13.29 +/- 0.46 g/dl); assay type: organism-based; details: in vivo, 168 h
[26] = tested on: Mus musculus; experiment: Acute toxicity in Swiss albino mouse assessed as changes in absolute weight of spleen up to 1000 mg/kg, po qd administered as single dose for 7 days; assay type: organism-based; details: in vivo, 168 h
[27] = tested on: Mus musculus; experiment: Acute toxicity in Swiss albino mouse assessed as serum haemoglobin level at 1000 mg/kg, po qd administered as single dose for 7 days (reference value: 13.29 +/- 0.46 g/dl); assay type: organism-based; details: in vivo, 168 h
[28] = tested on: Mus musculus; experiment: Acute toxicity in Swiss albino mouse assessed as serum triglycerides level at 50 mg/kg, po qd administered as single dose for 7 days (reference value: 107.9 +/- 10.7 mg/dl); assay type: organism-based; details: in vivo, 168 h
[29] = tested on: Mus musculus; experiment: Acute toxicity in Swiss albino mouse assessed as serum protein level at 50 mg/kg, po qd administered as single dose for 7 days (reference value: 2.91 +/- 0.31 mg/ml); assay type: organism-based; details: in vivo, 168 h
[30] = tested on: Mus musculus; experiment: Acute toxicity in Swiss albino mouse assessed as serum cholesterol level at 5 mg/kg, po qd administered as single dose for 7 days (reference value: 68.37 +/- 4.42 mg/dl); assay type: organism-based; details: in vivo, 168 h
[31] = tested on: Mus musculus; experiment: Acute toxicity in Swiss albino mouse assessed as mortality up to 1000 mg/kg, po qd administered as single dose for 7 days; assay type: organism-based; details: in vivo, 168 h
[32] = tested on: Mus musculus; experiment: Acute toxicity in Swiss albino mouse assessed as effect on neutrophil count up to 1000 mg/kg, po qd administered as single dose for 7 days; assay type: organism-based; details: in vivo, 168 h
[33] = tested on: Mus musculus; experiment: Acute toxicity in Swiss albino mouse assessed as serum protein level at 5 mg/kg, po qd administered as single dose for 7 days (reference value: 2.91 +/- 0.31 mg/ml); assay type: organism-based; details: in vivo, 168 h
[34] = tested on: Mus musculus; experiment: Acute toxicity in Swiss albino mouse assessed as body weight at 5 mg/kg, po qd administered as single dose for 7 days (reference value: 27.73 +/- 0.94 g); assay type: organism-based; details: in vivo, 168 h
[35] = tested on: Mus musculus; experiment: Acute toxicity in Swiss albino mouse assessed as serum creatinine level at 5 mg/kg, po qd administered as single dose for 7 days (reference value: 0.09 +/- 0.01 mg/dl); assay type: organism-based; details: in vivo, 168 h
[36] = tested on: Mus musculus; experiment: Acute toxicity in Swiss albino mouse assessed as serum haemoglobin level at 300 mg/kg, po qd administered as single dose for 7 days (reference value: 13.29 +/- 0.46 g/dl); assay type: organism-based; details: in vivo, 168 h

Compound: O=C1C=C(OCc2ccccc2)C(=O)c2ccccc21
- Activity [1]: 0.16 mg/dL
- Activity [2]: 8.54 million/mm3
- Activity [3]: Non-Toxic
- Activity [4]: Non-Toxic
- Activity [5]: 12.65 g/dL
- Activity [6]: 304.24 U/L
- Activity [7]: 8.67 million/mm3
- IC50 [8]: > 150 µM
- Activity [9]: Non-Toxic
- Activity [10]: Non-Toxic
- Activity [11]: Non-Toxic
- IC50 [12]: 16.2 µM
- Activity [13]: Non-Toxic
- Activity [14]: Non-Toxic
- Activity [15]: 33.87 U/L
- Activity [16]: Non-Toxic
- Activity [17]: 385.91 U/L
- Activity [18]: 8.7 ×10³ /mm3
- Activity [19]: 2.56 g/dL
- Activity [20]: 26.48 g
- Activity [21]: 8.38 ×10³ /mm3
- Activity [22]: Active
- Activity [23]: 0.13 mg/dL
- Activity [24]: Non-Toxic
- Activity [25]: 13.26 g/dL
- Activity [26]: Non-Toxic
- Activity [27]: 13.28 g/dL
- Activity [28]: 112.9 mg/dL
- Activity [29]: 2.92 mg/mL
- Activity [30]: 65.28 mg/dL
- Activity [31]: Non-Toxic
- Activity [32]: Non-Toxic
- Activity [33]: 2.55 mg/mL
- Activity [34]: 26.34 g
- Activity [35]: 0.14 mg/dL
- Activity [36]: 13.42 g/dL
